What was measured:
[1] = target: T1, NS3-NS4 (Hepatitis C virus genotype 1a, UniProt P27958); assay: cell-based; details: EC50, NS3-NS4 activity
[2] = target: T1, NS3-NS4; assay: NS3-NS4 activity, IC50 (Example 37, Table 8); type: biochemical

T1 sequence (P27958 1027-1657): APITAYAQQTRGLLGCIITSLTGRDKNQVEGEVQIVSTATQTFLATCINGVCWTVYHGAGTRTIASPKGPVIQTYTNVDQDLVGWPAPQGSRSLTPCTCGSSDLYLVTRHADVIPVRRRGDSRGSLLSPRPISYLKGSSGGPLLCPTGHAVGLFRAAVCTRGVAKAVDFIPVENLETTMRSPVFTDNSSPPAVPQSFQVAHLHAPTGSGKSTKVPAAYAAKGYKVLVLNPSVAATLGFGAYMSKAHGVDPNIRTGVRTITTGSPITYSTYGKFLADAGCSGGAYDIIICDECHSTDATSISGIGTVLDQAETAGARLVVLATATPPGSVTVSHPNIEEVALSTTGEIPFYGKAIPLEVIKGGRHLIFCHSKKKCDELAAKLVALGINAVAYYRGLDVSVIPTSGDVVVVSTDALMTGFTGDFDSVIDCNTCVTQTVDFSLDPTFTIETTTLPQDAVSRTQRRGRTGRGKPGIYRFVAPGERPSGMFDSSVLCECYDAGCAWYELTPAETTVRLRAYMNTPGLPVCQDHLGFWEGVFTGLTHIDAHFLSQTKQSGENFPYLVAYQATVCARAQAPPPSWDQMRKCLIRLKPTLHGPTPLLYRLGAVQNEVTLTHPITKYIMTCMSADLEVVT
T1 sequence (P27958 1658-1711): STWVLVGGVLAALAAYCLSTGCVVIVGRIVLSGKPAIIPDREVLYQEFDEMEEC

SMILES | EC50 [1] | IC50 [2]
CC(C)(C)OC(=O)N[C@H]1CCCCC/C=C\[C@@H]2C[C@@]2(C(=O)NS(=O)(=O)c2ccccc2C(F)(F)F)NC(=O)[C@@H]2C[C@@H](OC(=O)N3Cc4cccc(F)c4C3)CN2C1=O [Compound 345] | < 100 nM | < 100 nM
Cc1cc(F)ccc1S(=O)(=O)NC(=O)[C@@]12C[C@H]1/C=C\CCCCC[C@H](NC(=O)OC(C)(C)C)C(=O)N1C[C@H](OC(=O)N3Cc4cccc(F)c4C3)C[C@H]1C(=O)N2 [Compound 346] | < 100 nM | < 100 nM
CC(C)(C)OC(=O)N[C@H]1CCCCC/C=C\[C@@H]2C[C@@]2(C(=O)NS(=O)(=O)c2ccc(C(F)(F)F)cc2)NC(=O)[C@@H]2C[C@@H](OC(=O)N3Cc4cccc(F)c4C3)CN2C1=O [Compound 347] | < 100 nM | < 100 nM
CC(C)(C)OC(=O)N[C@H]1CCCCC/C=C\[C@@H]2C[C@@]2(C(=O)NS(=O)(=O)c2ccc(Cl)cc2Cl)NC(=O)[C@@H]2C[C@@H](OC(=O)N3Cc4cccc(F)c4C3)CN2C1=O [Compound 348] | < 100 nM | < 100 nM
CC(C)(C)OC(=O)N[C@H]1CCCCC/C=C\[C@@H]2C[C@@]2(C(=O)NS(=O)(=O)c2ccccc2F)NC(=O)[C@@H]2C[C@@H](OC(=O)N3Cc4cccc(F)c4C3)CN2C1=O [Compound 349] | < 100 nM | < 100 nM
CC(C)(C)OC(=O)N[C@H]1CCCCC/C=C\[C@@H]2C[C@@]2(C(=O)NS(=O)(=O)c2cccc(F)c2)NC(=O)[C@@H]2C[C@@H](OC(=O)N3Cc4cccc(F)c4C3)CN2C1=O [Compound 350] | < 100 nM | < 100 nM
CC(C)(C)OC(=O)N[C@H]1CCCCC/C=C\[C@@H]2C[C@@]2(C(=O)NS(=O)(=O)c2ccc(F)cc2)NC(=O)[C@@H]2C[C@@H](OC(=O)N3Cc4cccc(F)c4C3)CN2C1=O [Compound 351] | < 100 nM | < 100 nM
COc1ccc(S(=O)(=O)NC(=O)[C@@]23C[C@H]2/C=C\CCCCC[C@H](NC(=O)OC(C)(C)C)C(=O)N2C[C@H](OC(=O)N4Cc5cccc(F)c5C4)C[C@H]2C(=O)N3)cc1 [Compound 352] | < 100 nM | < 100 nM
CC(C)(C)OC(=O)N[C@H]1CCCCC/C=C\[C@@H]2C[C@@]2(C(=O)NS(=O)(=O)c2cccc(Cl)c2)NC(=O)[C@@H]2C[C@@H](OC(=O)N3Cc4cccc(F)c4C3)CN2C1=O [Compound 353] | < 100 nM | < 100 nM
CC(C)(C)OC(=O)N[C@H]1CCCCC/C=C\[C@@H]2C[C@@]2(C(=O)NS(=O)(=O)c2cc(Cl)c(Cl)s2)NC(=O)[C@@H]2C[C@@H](OC(=O)N3Cc4cccc(F)c4C3)CN2C1=O [Compound 354] | 100 to 1000 nM | < 100 nM
Cc1ccc(S(=O)(=O)NC(=O)[C@@]23C[C@H]2/C=C\CCCCC[C@H](NC(=O)OC(C)(C)C)C(=O)N2C[C@H](OC(=O)N4Cc5cccc(F)c5C4)C[C@H]2C(=O)N3)c(C)c1 [Compound 355] | < 100 nM | < 100 nM
CC(C)Oc1ccc(S(=O)(=O)NC(=O)[C@@]23C[C@H]2/C=C\CCCCC[C@H](NC(=O)OC(C)(C)C)C(=O)N2C[C@H](OC(=O)N4Cc5cccc(F)c5C4)C[C@H]2C(=O)N3)cc1 [Compound 356] | < 100 nM | < 100 nM
CC(C)(C)OC(=O)N[C@H]1CCCCC/C=C\[C@@H]2C[C@@]2(C(=O)NS(=O)(=O)c2cc(Cl)sc2Cl)NC(=O)[C@@H]2C[C@@H](OC(=O)N3CCc4ccccc4C3)CN2C1=O [Compound 357] | 100 to 1000 nM | 100 to 1000 nM
Cc1ccccc1S(=O)(=O)NC(=O)[C@@]12C[C@H]1/C=C\CCCCC[C@H](NC(=O)N(C)C(C)(C)C)C(=O)N1C[C@H](OC(=O)N3Cc4cccc(F)c4C3)C[C@H]1C(=O)N2 [Compound 358] | < 100 nM | < 100 nM
CN(C(=O)N[C@H]1CCCCC/C=C\[C@@H]2C[C@@]2(C(=O)NS(=O)(=O)c2ccccc2Cl)NC(=O)[C@@H]2C[C@@H](OC(=O)N3Cc4cccc(F)c4C3)CN2C1=O)C(C)(C)C [Compound 359] | < 100 nM | < 100 nM
CN(C(=O)N[C@H]1CCCCC/C=C\[C@@H]2C[C@@]2(C(=O)NS(=O)(=O)c2c(Cl)cccc2Cl)NC(=O)[C@@H]2C[C@@H](OC(=O)N3Cc4cccc(F)c4C3)CN2C1=O)C(C)(C)C [Compound 360] | 100 to 1000 nM | < 100 nM
CN(C(=O)N[C@H]1CCCCC/C=C\[C@@H]2C[C@@]2(C(=O)NS(=O)(=O)c2ccc(Cl)cc2)NC(=O)[C@@H]2C[C@@H](OC(=O)N3Cc4cccc(F)c4C3)CN2C1=O)C(C)(C)C [Compound 361] | < 100 nM | < 100 nM
CN(C(=O)N[C@H]1CCCCC/C=C\[C@@H]2C[C@@]2(C(=O)NS(=O)(=O)c2c(F)cccc2F)NC(=O)[C@@H]2C[C@@H](OC(=O)N3Cc4cccc(F)c4C3)CN2C1=O)C(C)(C)C [Compound 362] | 100 to 1000 nM | < 100 nM
CC(C)(C)OC(=O)N[C@H]1CCCCC/C=C\[C@@H]2C[C@@]2(C(=O)NS(=O)(=O)c2c(F)cccc2F)NC(=O)[C@@H]2C[C@@H](OC(=O)N3CCc4ccccc4C3)CN2C1=O [Compound 363] | 1000 to 10000 nM | < 100 nM
CC(C)(C)OC(=O)N[C@H]1CCCCC/C=C\[C@@H]2C[C@@]2(C(=O)NS(=O)(=O)c2c(F)cccc2F)NC(=O)[C@@H]2C[C@@H](OC(=O)N3Cc4ccccc4C3)CN2C1=O [Compound 364] | 100 to 1000 nM | < 100 nM
O=C(N[C@H]1CCCCC/C=C\[C@@H]2C[C@@]2(C(=O)NS(=O)(=O)C2CC2)NC(=O)[C@@H]2C[C@@H](OC(=O)N3Cc4cccc(F)c4C3)CN2C1=O)OC1CCOCC1 [Compound 401, (2R,6S,13aS,14aR,16aS,Z)-14a-(cyclopropylsulfonylcarbamoyl)-5,16-dioxo-6-((tetrahydro-2H-pyran-4-yloxy)carbonylamino)-1,2,3,5,6,7,8,9,10,11,13a,14,14a,15,16,16a-hexadecahydrocyclopropa[e]pyrrolo[1,2-a][1,4]diazacyclopentadecin-2-yl 4-fluoroisoindoline-2-carboxylate] | < 100 nM | < 100 nM
O=C(N[C@H]1CCCCC/C=C\[C@@H]2C[C@@]2(C(=O)NS(=O)(=O)C2CC2)NC(=O)[C@@H]2C[C@@H](OC(=O)N3Cc4cccc(Cl)c4C3)CN2C1=O)O[C@@H]1CCOC1 [Compound 402, (2R,6S,13aS,14aR,16aS,Z)-14a-(cyclopropylsulfonylcarbamoyl)5,16-dioxo-6-(((R)-tetrahydrofuran-3-yloxy)carbonylamino)-1,2,3,5,6,7,8,9,10,11,13a,14,14a,15,16,16a-hexadecahydrocyclopropa[e]pyrrolo[1,2-a][1,4]diazacyclopentadecin-2-yl 4-chloroisoindoline-2-carboxylate] | < 100 nM | < 100 nM
O=C1N[C@]2(C(=O)NS(=O)(=O)C3CC3)C[C@H]2/C=C\CCCCC[C@H](NC(=O)C2(C(F)(F)F)CC2)C(=O)N2C[C@H](OC(=O)N3Cc4cccc(F)c4C3)C[C@@H]12 [Compound 403, (2R,6S,13aS,14aR,16aS,Z)-14a-(cyclopropylsulfonylcarbamoyl)-5,16-dioxo-6-(1-(trifluoromethyl)cyclopropanecarboxamido)-1,2,3,5,6,7,8,9,10,11,13a,14,14a,15,16,16a-hexadecahydrocyclopropa[e]pyrrolo[1,2-a][1,4]diazacyclopentadecin-2-yl 4-fluoroisoindoline-2-carboxylate] | < 100 nM | < 100 nM

Source: patent publication US20090155209A1, “NOVEL MACROCYCLIC INHIBITORS OF HEPATITIS C VIRUS REPLICATION” (priority 2007, published 2009)
